Results as given in patent US12371436B2, “Substituted benzodiazoliums as ENaC inhibitors” (ENTERPRISE THERAPEUTICS LIMITED, priority 2016, dated 2025).

The compounds below were run against T1, ENaC (Homo sapiens, UniProt P37088+P51168+P51170) (assay: Short circuit current assay to determine ENaC blocker potency in human bronchial epithelial cells). Details: 50% inhibition of total amiloride-sensitive ISC, apical addition, read-out: Averages.ENaC IC50 (nM) Avg.
T1 construct: host or cells: primary human bronchial epithelial cells (HBECs) differentiated at air-liquid interface
T1 sequence (P37088 1-669): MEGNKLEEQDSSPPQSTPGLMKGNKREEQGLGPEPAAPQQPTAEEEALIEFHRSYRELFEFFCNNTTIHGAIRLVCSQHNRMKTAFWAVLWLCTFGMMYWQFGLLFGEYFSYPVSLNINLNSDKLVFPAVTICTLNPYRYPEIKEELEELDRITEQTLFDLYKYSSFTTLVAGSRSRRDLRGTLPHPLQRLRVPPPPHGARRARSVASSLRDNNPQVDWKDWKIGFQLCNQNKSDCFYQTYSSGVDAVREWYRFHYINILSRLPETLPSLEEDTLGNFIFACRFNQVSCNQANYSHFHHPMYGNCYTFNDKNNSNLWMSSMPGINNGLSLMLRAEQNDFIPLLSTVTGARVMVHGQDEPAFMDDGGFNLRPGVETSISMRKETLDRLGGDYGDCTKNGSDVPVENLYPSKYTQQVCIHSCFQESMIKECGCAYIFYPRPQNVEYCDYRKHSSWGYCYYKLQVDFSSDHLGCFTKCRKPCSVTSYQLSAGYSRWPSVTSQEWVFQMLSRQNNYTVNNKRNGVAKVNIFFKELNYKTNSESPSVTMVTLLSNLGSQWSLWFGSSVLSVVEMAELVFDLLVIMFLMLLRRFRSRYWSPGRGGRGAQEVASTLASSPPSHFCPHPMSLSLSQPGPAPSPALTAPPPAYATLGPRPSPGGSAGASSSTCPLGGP
T1 sequence (P51168 1-640): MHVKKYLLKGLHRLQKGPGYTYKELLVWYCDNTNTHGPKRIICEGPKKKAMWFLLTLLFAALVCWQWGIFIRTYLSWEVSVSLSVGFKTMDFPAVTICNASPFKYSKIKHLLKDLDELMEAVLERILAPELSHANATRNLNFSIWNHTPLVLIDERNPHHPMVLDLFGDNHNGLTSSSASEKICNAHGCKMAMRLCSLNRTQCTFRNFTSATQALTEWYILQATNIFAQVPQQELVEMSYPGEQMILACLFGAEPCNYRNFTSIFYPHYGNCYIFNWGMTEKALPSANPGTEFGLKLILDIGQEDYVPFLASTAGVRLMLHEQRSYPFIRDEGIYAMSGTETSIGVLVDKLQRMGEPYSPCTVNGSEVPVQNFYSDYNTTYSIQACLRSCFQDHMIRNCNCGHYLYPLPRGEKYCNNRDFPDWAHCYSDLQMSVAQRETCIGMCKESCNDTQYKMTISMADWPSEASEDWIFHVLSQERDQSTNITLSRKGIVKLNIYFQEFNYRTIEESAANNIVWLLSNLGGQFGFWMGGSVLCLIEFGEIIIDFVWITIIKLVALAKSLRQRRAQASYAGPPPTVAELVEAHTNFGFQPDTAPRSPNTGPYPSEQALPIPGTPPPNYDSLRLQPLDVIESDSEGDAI
T1 sequence (P51170 1-649): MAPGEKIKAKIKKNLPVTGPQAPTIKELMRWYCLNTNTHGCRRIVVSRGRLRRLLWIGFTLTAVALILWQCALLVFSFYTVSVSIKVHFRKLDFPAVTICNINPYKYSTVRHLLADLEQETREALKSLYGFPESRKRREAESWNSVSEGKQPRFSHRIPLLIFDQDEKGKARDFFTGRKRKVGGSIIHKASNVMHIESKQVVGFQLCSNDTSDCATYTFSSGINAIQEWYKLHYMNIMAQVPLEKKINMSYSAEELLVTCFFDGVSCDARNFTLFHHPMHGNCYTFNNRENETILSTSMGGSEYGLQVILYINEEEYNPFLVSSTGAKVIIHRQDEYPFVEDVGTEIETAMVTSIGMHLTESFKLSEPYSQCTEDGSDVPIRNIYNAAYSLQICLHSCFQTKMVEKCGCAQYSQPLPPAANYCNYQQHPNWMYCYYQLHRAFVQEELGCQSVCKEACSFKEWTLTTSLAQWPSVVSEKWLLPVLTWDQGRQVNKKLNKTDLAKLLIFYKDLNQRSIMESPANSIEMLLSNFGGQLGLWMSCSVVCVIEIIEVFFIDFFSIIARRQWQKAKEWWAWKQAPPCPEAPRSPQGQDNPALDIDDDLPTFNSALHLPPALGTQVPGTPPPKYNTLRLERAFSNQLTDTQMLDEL
Assay type: cell-based
Procedure: Example 68—Short circuit current assay to determine ENaC blocker potency in human bronchial epithelial cells
Human bronchial epithelial cells (HBECs) (Lonza, UK) were cultured using a modification of the method described by Coote et al, (2008). Cells were seeded into plastic T-75 flasks and grown in Bronchial Epithelial Cell Growth Medium (BEGM) (Lonza, UK) supplemented with bovine pituitary extract (52 ng/mL), hydrocortisone (0.5 μg/mL), human recombinant Epidermal Growth Factor (0.5 ng/mL), epinephrine (0.5 ng/mL), transferrin (10 ng/mL), insulin (5 ng/mL), retinoic acid (0.1 ng/mL), triiodothyronine (6.5 ng/mL), gentamycin (50 μg/mL) and amphotericin-B (50 ng/mL). Medium was changed every 48 hours until cells were 90% confluent. Cells were then passaged and seeded (8.25×10^5 cells/insert) onto polycarbonate Snapwell™ inserts (Costar, UK) in differentiation media containing 50% DMEM in BGEM with the same supplements as above but without triiodothyronine and a final retinoic acid concentration of 50 nM (all-trans retinoic acid; Sigma-Aldrich, UK). Cells were maintained submerged for the first 7 days in culture after which time they were exposed to an apical air interface for the remainder of the culture period. From the first day of establishment of an ALI, HBEC were fed with a DMEM:HAMS F-12 (1:1) media containing 2% Ultroser G (Pall BioSepra, France) with gentamycin (50 μg/mL) and amphotericin B (50 ng/mL). Cells were used for short-circuit current assay between days 14-21 after the establishment of the ALI. At all stages of culture, cells were maintained at 37° C. in 5% CO2 in an air incubator.
Short-Circuit Current (ISC) Measurements
Snapwell inserts were mounted in Costar Vertical Diffusion Chambers (Costar, UK) and were bathed with continuously gassed Ringer solution (5% CO2 in O2; pH 7.4) maintained at 37° C. containing (in mM): 120 NaCl, 25 NaHCO3, 3.3 KH2PO4, 0.8 K2HPO4, 1.2 CaCl2, 1.2 MgCl2 and 10 glucose. The solution osmolarity was always between 280-300 mOsm/kg H2O for all physiological salt solutions used. Cells were voltage clamped to 0 mV (model EVC4000, WPI). Transepithelial resistance (RT) was measured by applying a 2 mV pulse at 30 s intervals and calculating RT by Ohm's law. Data were recorded using a PowerLab workstation (ADlnstruments, UK).
ENaC blocker compounds were added to the apical chamber from a 1000-fold stock solution (prepared in DMSO) to achieve a cumulative concentration response in terms of the inhibition of the basal ISC. At the completion of the concentration response, a supra-maximal concentration of amiloride (10 μM) was added. The concentration of test compound that induced a 50% inhibition of the total amiloride-sensitive ISC (IC50) was calculated using GraphPad Prism v6.05. The results are presented in Table 2, from which it can be seen that the compounds of the present invention have ENaC inhibiting activity.

| SMILES | IC50 [nM] |
| --- | --- |
| CCn1c(CNC(=O)c2nc3cc[nH]c3nc2N)[n+](Cc2ccccc2)c2ccc(C(F)(F)F)cc21 [Example 17, 2-[({3-amino-5H-pyrrolo[2,3-b]pyrazin-2-yl}formamido)methyl]-3-benzyl-1-ethyl-6-(trifluoromethyl)-1H-1,3-benzodiazol-3-ium] | 15 |
| Nc1nc2[nH]ccc2nc1C(=O)NCc1n(CC(=O)N2CCCCC2)c2ccccc2[n+]1Cc1ccccc1 [Example 18, 2-[({3-amino-5H-pyrrolo[2,3-b]pyrazin-2-yl}formamido)methyl]-3-benzyl-1-[2-oxo-2-(piperidin-1-yl)ethyl]-1H-1,3-benzodiazol-3-ium] | 5450 |
| CCn1c(CNC(=O)c2nc3cc(C)[nH]c3nc2N)[n+](C)c2ccc(OC)cc21 [Example 19, 2-[({3-amino-6-methyl-5H-pyrrolo[2,3-b]pyrazin-2-yl}formamido)methyl]-1-ethyl-6-methoxy-3-methyl-1H-1,3-benzodiazol-3-ium] | 8 |
| CCn1c(CNC(=O)c2nc3c(C)c[nH]c3nc2N)[n+](CC)c2ccc(Cl)cc21 [Example 20, 2-[({3-amino-7-methyl-5H-pyrrolo[2,3-b]pyrazin-2-yl}formamido)methyl]-6-chloro-1,3-diethyl-1H-1,3-benzodiazol-3-ium] | 4 |
| CCn1c(CNC(=O)c2nc3c(Cl)c[nH]c3nc2N)[n+](CC)c2ccc(Cl)cc21 [Example 21, 2-[({3-amino-7-chloro-5H-pyrrolo[2,3-b]pyrazin-2-yl}formamido)methyl]-6-chloro-1,3-diethyl-1H-1,3-benzodiazol-3-ium] | 2 |
| CCn1c(CNC(=O)c2nc3cc[nH]c3nc2N)[n+](CC)c2ccc(OCCNC(=O)OC(C)(C)C)cc21 [Example 22, 2-[({3-amino-5H-pyrrolo[2,3-b]pyrazin-2-yl}formamido)methyl]-6-(2-{[(tert-butoxy)carbonyl]amino}ethoxy)-1,3-diethyl-1H-1,3-benzodiazol-3-ium] | 8 |
| CCn1c(CNC(=O)c2nc3cc[nH]c3nc2N)[n+](CC)c2ccc(OCCCNC(=O)OC(C)(C)C)cc21 [Example 23, 2-[({3-amino-5H-pyrrolo[2,3-b]pyrazin-2-yl}formamido)methyl]-6-(3-{[(tert-butoxy)carbonyl]amino}propoxy)-1,3-diethyl-1H-1,3-benzodiazol-3-ium] | 4 |
| CCn1c(CNC(=O)c2nc3cc[nH]c3nc2N)[n+](CC)c2ccc(CCCNC(=O)OC(C)(C)C)cc21 [Example 24, 2-[({3-amino-5H-pyrrolo[2,3-b]pyrazin-2-yl}formamido)methyl]-6-(3-{[(tert-butoxy)carbonyl]amino}propyl)-1,3-diethyl-1H-1,3-benzodiazol-3-ium] | 6 |
| CCn1c(CNC(=O)c2nc3cc[nH]c3nc2N)[n+](CC)c2ccc(C3CCN(C(=O)OC(C)(C)C)CC3)cc21 [Example 25, 2-[({3-amino-5H-pyrrolo[2,3-b]pyrazin-2-yl}formamido)methyl]-6-{1-[(tert-butoxy)carbonyl]piperidin-4-yl}-1,3-diethyl-1H-1,3-benzodiazol-3-ium] | 2 |
| CCn1c(CNC(=O)c2nc3cc[nH]c3nc2N)[n+](CC)c2ccc(-c3cnn(C4CCN(C(=O)OC(C)(C)C)CC4)c3)cc21 [Example 26, 2-[({3-amino-5H-pyrrolo[2,3-b]pyrazin-2-yl}formamido)methyl]-6-(1-{1-[(tert-butoxy)carbonyl]piperidin-4-yl}-1H-pyrazol-4-yl)-1,3-diethyl-1H-1,3-benzodiazol-3-ium] | 1 |
| CCn1c(CNC(=O)c2nc3cc[nH]c3nc2N)[n+](CC)c2ccc(OCCN)cc21 [Example 27, 2-[({3-amino-5H-pyrrolo[2,3-b]pyrazin-2-yl}formamido)methyl]-6-(2-aminoethoxy)-1,3-diethyl-1H-1,3-benzodiazol-3-ium] | 14 |
| CCn1c(CNC(=O)c2nc3cc[nH]c3nc2N)[n+](CC)c2ccc(OCCCN)cc21 [Example 28, 2-[({3-amino-5H-pyrrolo[2,3-b]pyrazin-2-yl}formamido)methyl]-6-(3-aminopropoxy)-1,3-diethyl-1H-1,3-benzodiazol-3-ium] | 7 |
| CCn1c(CNC(=O)c2nc3cc[nH]c3nc2N)[n+](CC)c2ccc(CCCN)cc21 [Example 29, 2-[({3-amino-5H-pyrrolo[2,3-b]pyrazin-2-yl}formamido)methyl]-6-(3-aminopropyl)-1,3-diethyl-1H-1,3-benzodiazol-3-ium] | 5 |
| CCn1c(CNC(=O)c2nc3cc[nH]c3nc2N)[n+](CC)c2ccc(C3CCNCC3)cc21 [Example 30, 2-[({3-amino-5H-pyrrolo[2,3-b]pyrazin-2-yl}formamido)methyl]-1,3-diethyl-6-(piperidin-4-yl)-1H-1,3-benzodiazol-3-ium] | 6 |
| CCn1c(CNC(=O)c2nc3cc[nH]c3nc2N)[n+](CC)c2ccc(-c3cnn(C4CCNCC4)c3)cc21 [Example 31, 2-[({3-amino-5H-pyrrolo[2,3-b]pyrazin-2-yl}formamido)methyl]-1,3-diethyl-6-[1-(piperidin-4-yl)-1H-pyrazol-4-yl]-1H-1,3-benzodiazol-3-ium] | 1 |
